Results as given in patent publication US8461117B2, “Chemical linkers and cleavable substrates and conjugates thereof” (Medarex, Inc., priority 2006, dated 2013).

Legend:
[1] = cited from earlier work
[2] = tested on: 786-O; assay: Second in vivo study: 786-O xenografts, cytotoxins (Compounds A, F, H-J) conjugated to anti-CD70 HuMAb 2H5; parameters: species or system CB17.SCID mice; settings: 786-O xenograft, tumors averaging 200 mm^3, single IP dose Day 0, 0.005-0.03 Toxin μmole, conjugated to CD70.1
Experimental: (§1) 786-O (ATCC Accession No. CRL-1932) cells were expanded in vitro using standard laboratory procedures. Male CB17.SCID mice (Taconic, Hudson, N.Y.) between 6-8 weeks of age were implanted subcutaneously in the right flank with 2.5 million 786-O in 0.2 ml of PBS/Matrigel (1:1) per mouse. Mice were weighed and measured for tumors three dimensionally using an electronic caliper twice weekly after implantation. Tumor volumes were calculated as height×width×length. Mice with tumors averaging 200 mm^3 were randomized into treatment groups. The mice were dosed intraperitoneally with PBS vehicle, cytotoxin-conjugated isotype control antibody or cytotoxin-conjugated anti-CD70 HuMAb 2H5 on Day 0. Each group contained 8 mice.

[3] = tested on: 786-O; assay: First in vivo study: 786-O xenografts, cytotoxins (Compounds A-G) conjugated to anti-CD70 HuMAb 2H5; parameters: species or system CB17.SCID mice; settings: 786-O xenograft, tumors averaging 200 mm^3, single IP dose Day 0, 0.1 (some also 0.01) Toxin μmole, conjugated to CD70.1
Experimental: as §1, with “as height x width x length.” for “as height×width×length.”, “contained 7” for “contained 8”

SMILES	Efficacy, descending order (mean/median tumor volume versus days past dosing, FIGS. 4-5) [2]	also measured
COc1c(O)c2c(c3cc(C(=O)N4CCc5c4c(O)c(OC)c4[nH]c(C(=O)N6CC7CC78C6=CC(=O)c6[nH]cc(C)c68)cc54)[nH]c13)CCN2C(N)=O (stereo not drawn) [CC-1065]	–	Antitumor and antimicrobial activity ([1]; both in vitro and in experimental animals (Li et al. 1982)): potent antitumor and antimicrobial activity; Toxicity in experimental animals ([1]; experimental animals): delayed death
CC(C)[C@H](NC(=O)CCOCCOCCOCCOCCNC(=O)CCN1C(=O)C=CC1=O)C(=O)N[C@@H](CCCNC(N)=O)C(=O)N1CCc2c1ccc1[nH]c(C(=O)N3C[C@@H](CBr)c4c3cc(OC(=O)N3CCN(C)CC3)c3ccccc43)cc21 [Compound C]	Compound J/Compound C>Compound H>Compound G/Compound I>Naked CD70.1	–
CC(C)[C@H](NC(=O)CCOCCOCCOCCOCCNC(=O)CCN1C(=O)C=CC1=O)C(=O)N[C@@H](CCCNC(N)=O)C(=O)N1CCc2c1ccc1[nH]c(C(=O)N3C[C@@H](CBr)c4c3cc(OC(=O)N3CCN(C)CC3)c3ccccc43)cc21 [Compound D]	–	Efficacy, descending order (mean/median tumor volume versus days past dosing, FIGS. 1-2) [3]: Compound D>Compound A>Compound F>Compound B>Compound C>Compound E>Naked CD70.1/Compound G
CC(C)[C@H](NCCNC(=O)CCCN1C(=O)C=CC1=O)C(=O)N[C@@H](CCCNC(N)=O)C(=O)Nc1ccc(C(=O)Nc2ccc3[nH]c(C(=O)N4C[C@@H](CBr)c5c4cc(OC(=O)N4CCN(C)CC4)c4ccccc54)cc3c2)cc1 [Compound H]	Compound J/Compound C>Compound H>Compound G/Compound I>Naked CD70.1	–
CC(C)[C@H](NCCNC(=O)CCCN1C(=O)C=CC1=O)C(=O)N[C@@H](CCCNC(N)=O)C(=O)Nc1ccc(C(=O)Nc2ccc3[nH]c(C(=O)N4C[C@@H](CCl)c5c4cc(OC(=O)N4CCN(C)CC4)c4ccccc54)cc3c2)cc1 [Compound J]	Compound J/Compound C>Compound H>Compound G/Compound I>Naked CD70.1	–
